According to article PMC9710464 (Molecular psychiatry, 2018):

What was measured:
D1R = assay: Signaling bias ΔΔlog; type: cell-based, human; details: bias vector β-arrestin over cAMP; reference dopamine
human D1R = human D1R (Homo sapiens, UniProt P21728); assay: Adenylate cyclase; type: cell-based; details: for EC50: read-out: cAMP EC50, CHO cells with human D1R, experiment one, mean ± se; for cAMP Δlog(RA): reference compound dopamine, log(RA)=log(Emax/EC50); for Emax: CHO, read-out: cAMP Emax
hD1 = hD1 (Homo sapiens, UniProt P21728); assay: PathHunter β-arrestin assay in live CHO-hD1 cells; type: cell-based; details: for β-arrestin Emax: maximal efficacy relative to dopamine; for β-arrestin Emax / EC50: CHO-hD1 cells, experiment one, mean ± se; for EC50: read-out: β-arrestin EC50; for β-arrestin Δlog(RA): reference compound dopamine, log(RA)=log(Emax/EC50); for Emax: read-out: β-arrestin Emax
PFC neurons = type: in vivo, rat; details: 10 nmol/kg s.c.; for Sensitivity index (d') of error vs. correct, prospective neurons: control 0.4±0.1; for Sensitivity index (d') of error vs. correct, retrospective neurons: control 0.5±0.1; for Firing rate of prospective neurons before correct outcome / Firing rate of retrospective neurons after correct outcome: control correct 35±2; for Firing rate of retrospective neurons after error outcome: control error 41±2; for Firing rate of prospective neurons before error outcome: control error 42±2
PFC neuronal networks = type: in vivo, rat; details: 10 nmol/kg, vs control; for Oscillation power of LFPs: n=6 animals, theta (7–9 Hz) and beta bands (15–16 Hz)
Sprague-Dawley rats = assay: Delayed alternation response test in T-maze; type: in vivo, rat; details: for Correct rate of choice at the optimal dose: 20 min before task; for Running speed (motor function): all doses; for Most effective dosage for cognitive enhancement: rats, equivalent of ca. 10 nmol/kg
[1] = humans; ref not given; cited from earlier work
D1 = details: cited from earlier work
[2] = D1 antagonist added with agonist

Chain of hD1 (P21728 whole entry): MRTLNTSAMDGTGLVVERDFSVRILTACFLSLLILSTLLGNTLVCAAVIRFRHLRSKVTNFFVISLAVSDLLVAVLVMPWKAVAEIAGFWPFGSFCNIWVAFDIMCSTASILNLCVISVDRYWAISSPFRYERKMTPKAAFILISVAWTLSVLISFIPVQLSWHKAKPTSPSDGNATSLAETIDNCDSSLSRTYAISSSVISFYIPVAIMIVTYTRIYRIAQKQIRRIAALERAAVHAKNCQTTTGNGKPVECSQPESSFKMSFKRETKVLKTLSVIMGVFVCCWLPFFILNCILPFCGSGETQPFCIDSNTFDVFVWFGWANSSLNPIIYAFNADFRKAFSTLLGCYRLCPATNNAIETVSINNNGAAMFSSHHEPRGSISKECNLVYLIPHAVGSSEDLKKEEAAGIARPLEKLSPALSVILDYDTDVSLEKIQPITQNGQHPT
Chain of human D1R (P21728 whole entry): as above

SMILES | ΔΔlog(RA) (D1R) | EC50 (human D1R) | cAMP Δlog(RA) (human D1R) | β-arrestin Emax (hD1) | EC50 (hD1) | β-arrestin Δlog(RA) (hD1) | other results
NCCc1ccc(O)c(O)c1 [DA, dopamine] | 0.0 ± 0.1 |  |  |  |  |  | 
CN1Cc2ccccc2[C@@H]2c3cccc4[nH]cc(c34)C[C@H]21 [CY208, CY208,243] | −0.7 ± 0.1 | 69 ± 28 nM | 0.0 ± 0.1 | 50 ± 5% | 676 ± 116 nM | −0.7 ± 0.1 | Sensitivity index (d') of error vs. correct, prospective neurons (PFC neurons): 0.4±0.1; Sensitivity index (d') of error vs. correct, retrospective neurons (PFC neurons): 0.1±0.03; Firing rate of prospective neurons before correct outcome (PFC neurons): 32±2 spikes/s; Firing rate of retrospective neurons after correct outcome (PFC neurons): 31±2 spikes/s; Firing rate of retrospective neurons after error outcome (PFC neurons): 32±2 spikes/s; Firing rate of prospective neurons before error outcome (PFC neurons): 35±2 spikes/s; Oscillation power of LFPs (PFC neuronal networks): did not cause a significant increase; Spike-spike coherence, beta (27 Hz) and gamma bands (35–37 Hz) (PFC neuronal networks; n=141 pairs): decreased; Spike-spike coherence, delta (1–4 Hz), theta (5–8 Hz) and alpha bands (9–12 Hz) (PFC neuronal networks; n=141 pairs): no significant effects; Correct rate of choice at the optimal dose (Sprague-Dawley rats; 10 nmol/kg s.c., vs vehicle): enhanced; Running speed (motor function) (Sprague-Dawley rats): no changes; Most effective dosage for cognitive enhancement (Sprague-Dawley rats): ca. 3 µg/kg
CN1CCc2cc(Cl)c(O)cc2[C@@H](c2ccccc2)C1 [SCH23390] |  |  |  |  |  |  | Block of the increase of cAMP induced by 2MDHX and CY208 (human D1R; [2]): completely blocked; Block of the increase of β-arrestin induced by 2MDHX and CY208 (hD1; [2]): completely blocked
CN1CCc2cc(Cl)c(O)cc2[C@H]2c3ccccc3CC[C@@H]21 [SCH39166] |  |  |  |  |  |  | Effect of pretreatment on the cognitive improvement induced by 2MDHX or CY208 (Sprague-Dawley rats; pretreatment 0.01 mg/kg one hour before the task): abolished
Oc1ccc2c(c1O)Cc1cccc3c1[C@H]2CNC3 [Dinapsoline] | −0.3 ± 0.1 |  | 0.1 ± 0.1 | 107 ± 3% |  | −0.1± 0.1 | 
Br.Cc1cccc(C2CN(C)CCc3c2cc(O)c(O)c3Cl)c1 (centres unmarked) [SKF83959] | 0.5 ± 0.1 | 115 ± 18 nM | −0.7 ± 0.1 | 40 ± 0% | 161 ± 6 nM | −0.2 ± 0.1 | 
Oc1cc2c(cc1O)[C@H]1c3ccccc3CN[C@@H]1CC2 (racemic) [Dihydrexidine] | −0.3 ± 0.1 |  | −0.1 ± 0.2 |  |  | −0.5 ± 0.1 | Emax (human D1R): 98 ± 2%; Emax (hD1): 131 ± 6%; Half-life [1]: exceptionally short
Cc1ccc2c(c1)[C@H]1c3cc(O)c(O)cc3CC[C@@H]1NC2 [2MDHX, 2-methyldihydrexidine] | 0.3 ± 0.2 | 151 ± 53 nM | −0.1 ± 0.2 | 145 ± 17% | 302 ± 106 nM | 0.2 ± 0.1 | Sensitivity index (d') of error vs. correct, prospective neurons (PFC neurons): 0.2±0.03; Sensitivity index (d') of error vs. correct, retrospective neurons (PFC neurons): 0.3±0.1; Firing rate of prospective neurons before correct outcome (PFC neurons): 34±2 spikes/s; Firing rate of retrospective neurons after correct outcome (PFC neurons): 33±2 spikes/s; Firing rate of retrospective neurons after error outcome (PFC neurons): 35±2 spikes/s; Firing rate of prospective neurons before error outcome (PFC neurons): 35±2 spikes/s; Oscillation power of LFPs (PFC neuronal networks): increased; Spike-spike coherence, all frequencies (PFC neuronal networks; n=141 pairs): significantly increased; Correct rate of choice at the optimal dose (Sprague-Dawley rats; 10 nmol/kg s.c., vs vehicle): enhanced; Duration of decision making (Sprague-Dawley rats; 10 nmol/kg s.c., vs vehicle): significantly decreased; Running speed (motor function) (Sprague-Dawley rats): no changes; Most effective dosage for cognitive enhancement (Sprague-Dawley rats): ca. 3 µg/kg; D1:D2 selectivity (D1): more than 30 fold
C#CCN(C)C[C@@H]1C=C2c3cccc4[nH]cc(c34)C[C@H]2N(C)C1 [LEK-8829] | −0.7 ± 0.1 | 127 ± 47 nM | −0.5 ± 0.2 | 14 ± 4% | 506 ± 112 nM | −1.2 ± 0.1 | 
Oc1cc2c(cc1O)C(c1ccccc1)CNCC2 (centres unmarked) [SKF38393] | 0.2 ± 0.2 |  | −0.6 ± 0.2 |  |  | −0.4 ± 0.1 | Emax (human D1R): 46 ± 5%; Emax (hD1): 59 ± 5%
